Measured values from patent publication US20250009716A1, “NOVEL INHIBITORS OF CLAUDIN-1 FOR THERAPEUTIC INTERVENTIONS” (BOARD OF REGENTS OF THE UNIVERSITY OF NEBRASKA, priority 2021, published 2025).

What was measured:
Assay type in all cases: cell-based
[1] = tested on: p-Src and c-PARP in SW480claudin-1 overexpressing cells; test: Expression of p-Src, Src and c-PARP
Excerpt: (§1) To this end, a library of molecules was synthesized in order to develop an initial SAR evaluation. The first compounds tested eliminated the acylated (thio) urea as well as the napthyl group and evaluated just the urea/phenyl compounds (Compounds 1-6). The methoxy group of the naphthalene ring system was needed when the benzimidazole group was present (16 vs. Compound 8). […] The result of metabolic stability was expressed as the percentage of drug remaining at each time. […] To further determine the effect of PDS-0330 on p-Src expression and association, cells were treated with Compound 1, 16 and PDS-0330. Expression and association with p-Src was unaffected with Compound 1 (negative control). The specificity of PDS-0330 for CLDN1 was further confirmed by treating SW480^CLDN1, HCT116^CLDN2 (overexpressing another tight junction protein) or normal IEC-6 cells with PDS-0330 (FIG. 12).
Furthermore, DLD-1 chemoresistant cells were treated with PDS-0330 and I-6. […] Based on the in vitro activity and metabolic stability, PDS-0330, and any potential new analogs will be evaluated in animal models to determine the pharmacokinetic properties and biodistribution as described in preliminary data.

SW480claudin-1 cells = test: Resistance to anoikis in claudin-1 overexpressing cells; conditions: 72 h treatment
Excerpt: The crystal structure of claudin-1 is unknown. Therefore, an in-silico protein folding program, YASARA, was used to identify an effective claudin-1 inhibitor. The resultant 3D-structure was then modeled using Molegro Virtual Docker (MVD) software program. These in-silico analyses identified putative cavities in the claudin-1 protein that can be targeted by small molecule inhibitors. Next, a 100K library of small molecules was screened in silico using the MVD. The top 10 inhibitors that bound to the Site #3 (targeting near c-terminal domain; the most accessible pocket; FIG. 2A) with the best binding energies were selected as hits and used for further testing. Screening of these inhibitors named Inihibitor-1 (1-1) to Inhibitor-10 (I-10) was done using SW480claudin-1, SW620 and control cells. Claudin-1 deficient HCT116 cells (WT-APC) or SW620shRNAcld-1 were used as negative controls. Resistance to anoikis and cell invasion was used as biological end-points in testing these inhibitors. […] 16 has the following structure:
as §1

[2] = molecular target: T1, claudin-1/Src complex in SW480claudin-1 cells (Homo sapiens, UniProt O95832); test: Claudin-1/Src association (proximity ligation assay, Co-IP); conditions: PLA, Co-IP or immuno-precipitation
T1 construct: claudin-1 was expressed in a non-metastatic CRC cell line, SW480 cells; expressed in transfected cells; host or cells: SW480 colorectal cancer cells expressing claudin-1 (SW480claudin-1)
T1 sequence (O95832 1-211): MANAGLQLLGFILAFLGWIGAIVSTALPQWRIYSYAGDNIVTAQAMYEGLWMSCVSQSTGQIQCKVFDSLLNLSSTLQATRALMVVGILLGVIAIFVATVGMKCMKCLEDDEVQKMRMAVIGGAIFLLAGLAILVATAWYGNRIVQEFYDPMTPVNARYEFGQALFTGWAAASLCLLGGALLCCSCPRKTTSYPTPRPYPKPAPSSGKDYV
Excerpt: The CSC cells contribute to the generation of metastasis (16-19), and key CSC characteristics are highly relevant to metastasis, including invasive motility, and, resistance to apoptosis (20,21). […] Considering that chemoresistance is central to the CRC progression and metastasis, we further tested if adjuvant use of 16 with 5FU can have significant bearing upon these traits. Colon cancer cells were subjected to exogenous administration of 16 alone, or in combination with the 5-FU, the conventional anti-CRC drug. […] To further determine the mechanistic details the effect of 16 on association of claudin-1 and Src, SW480claudin-1 cells were treated with 16 or the vehicle and resultant cell lysate was subjected to Proximity ligation assay (PLA) or Co—IP.

claudin-1/Src (p-Src) association [2]: unaffected
SMILES: COc1ccccc1NC(=O)Nc1ccc(-c2nc3ccccc3[nH]2)cc1 [Compound 1]
p-Src expression [1]: unaffected
effect on resistance to anoikis (SW480claudin-1 cells): not much change
